# Measurements as given in patent US9695155B2, “Herbicidal substituted pyrimidinyloxy benzene compounds” (E. I. DU PONT DE NEMOURS AND COMPANY, priority 2013, dated 2017).
# Assays:
# kochia [1] = experiment: Test A preemergence; format: in vivo, Kochia scoparia
# In short: (§1)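 Greenhouse pot test, loam/sand soil. Formulation: non-phytotoxic solvent mix plus surfactant. Pre: directed spray onto soil after sowing. Post: plants at 1–2 leaf, 2–10 cm. Rated visually vs untreated controls at ~10 d, 0 (no effect) to 100 (complete control).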
# kochia [2] = experiment: Test A postemergence; format: in vivo, Kochia scoparia
# In short: as §1
# ragweed = experiment: Test A postemergence; format: in vivo, Ambrosia elatior
# In short: as §1
# [3] = 31 g ai/ha, 0 to 100 scale where 0 is no effect and 100 is complete control, visual, approximately 10 days
# [4] = 31 g ai/ha, 0 to 100 scale, 0 no effect, 100 complete control
# [5] = 125 g ai/ha, 0 to 100 scale, 0 no effect, 100 complete control
# [6] = 1000 g ai/ha, 0 to 100 scale, 0 no effect, 100 complete control
# [7] = 125 g ai/ha, 0 to 100 scale where 0 is no effect and 100 is complete control
# [8] = 500 g ai/ha, 0 to 100 scale where 0 is no effect and 100 is complete control
smiles,measurement,setting,value
FCc1cccc(Oc2ncc(Cl)cn2)c1-n1cc(I)cn1 [Compound 245],"Plant response rating, Kochia",kochia [1]; [3],0
same,Kochia plant response rating (0 to 100 scale),kochia [1]; 125 g ai/ha,30
same,"Plant response rating, Kochia",kochia [2]; [4],60
same,"Plant response rating, Kochia",kochia [2]; [5],100
same,"Plant response rating, Ragweed",ragweed; [4],0
same,"Plant response rating, Ragweed",ragweed; [5],20
FCc1cn(-c2ccccc2Oc2ncc(Cl)cn2)nn1 [Compound 123],Kochia plant response rating,"kochia [1]; 1000 g ai/ha, 0 to 100 scale, 0 no effect, 100 complete control, approx. 10 days",100
same,"Plant response rating, Kochia",kochia [2]; [6],100
same,"Plant response rating, Ragweed",ragweed; [6],100
FCc1cccc(Oc2ncc(F)cn2)c1-n1cc(I)cn1 [Compound 152],"Plant response rating, Kochia",kochia [1]; [3],20
same,"Plant response rating, Kochia",kochia [1]; [7],90
same,"Plant response rating, Kochia",kochia [2]; [4],20
same,Kochia plant response rating,kochia [2]; [7],80
same,"Plant response rating, Ragweed",ragweed; [4],20
same,Ragweed plant response rating,ragweed; [7],20
Clc1cnc(Oc2cccc(Br)c2-n2cc(I)nn2)nc1 [Compound 117],"Plant response rating, Kochia",kochia [1]; [7],70
same,Kochia plant response rating,kochia [1]; [8],100
same,"Plant response rating, Kochia",kochia [2]; [7],100
same,"Plant response rating, Kochia",kochia [2]; [8],100
same,"Plant response rating, Ragweed",ragweed; [8],100
